Source: patent publication US20240116985A1, “STAPLED PEPTIDES AND METHODS THEREOF” (priority 2020, published 2024)

These compounds were tested against T1, full-length beta-Catenin (Uniprot ID P35222) (Homo sapiens, UniProt P35222) (assay: Fluorescence polarization IC50 (beta-catenin / 5FAM-TCF4 10-53 competition)). Settings: beta-Catenin FP IC50 (nM), fluorescence polarization.
T1 construct: 10 nM full-length beta-Catenin (Uniprot ID P35222)
T1 sequence (P35222 1-781): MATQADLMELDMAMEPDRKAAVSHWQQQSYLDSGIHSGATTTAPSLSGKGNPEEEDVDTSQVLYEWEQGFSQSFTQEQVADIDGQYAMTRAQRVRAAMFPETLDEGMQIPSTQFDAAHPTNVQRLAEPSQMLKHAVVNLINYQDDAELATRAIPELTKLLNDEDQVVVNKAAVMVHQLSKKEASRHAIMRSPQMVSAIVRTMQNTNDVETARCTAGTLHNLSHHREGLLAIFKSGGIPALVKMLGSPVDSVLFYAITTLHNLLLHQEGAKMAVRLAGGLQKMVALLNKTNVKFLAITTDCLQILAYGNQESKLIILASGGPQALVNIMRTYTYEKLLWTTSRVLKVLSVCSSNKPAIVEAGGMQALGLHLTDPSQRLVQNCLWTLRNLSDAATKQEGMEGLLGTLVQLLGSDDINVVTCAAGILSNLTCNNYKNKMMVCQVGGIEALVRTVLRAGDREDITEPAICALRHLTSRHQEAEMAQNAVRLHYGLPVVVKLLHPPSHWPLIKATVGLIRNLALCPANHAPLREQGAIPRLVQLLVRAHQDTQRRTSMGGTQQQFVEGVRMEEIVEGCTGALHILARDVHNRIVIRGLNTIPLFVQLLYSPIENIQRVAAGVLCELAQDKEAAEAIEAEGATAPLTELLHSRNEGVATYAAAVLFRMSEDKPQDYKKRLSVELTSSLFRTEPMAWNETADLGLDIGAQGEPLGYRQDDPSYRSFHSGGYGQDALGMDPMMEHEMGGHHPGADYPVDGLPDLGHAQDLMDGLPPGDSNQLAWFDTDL
Type: binding

SMILES	IC50 [nM]
C[C@@H]1NC(=O)[C@H](C)NC(=O)[C@H](CC(=O)O)NC(=O)[C@H](CC(=O)O)NC(=O)C2(CCCC=CCCCOC(=O)N3CC[C@@](C(=O)N[C@@H](Cc4ccsc4)C(=O)N[C@@H](Cc4csc5ccccc45)C(=O)N[C@@H](Cc4c[nH]cn4)C(N)=O)(C3)NC(=O)[C@H](CCC(N)=O)NC(=O)[C@H](Cc3ccccc3)NC1=O)CCCC=CC[C@]1(CCCN1C(=O)Oc1ccccc1)C(=O)N[C@@H](CC(=O)O)C(=O)N[C@@H](CC(C)(C)C)C(=O)N2 (stereo partly drawn) [I-2326, CO2Ph-PL3-Asp-Npg-B5-Asp-Asp-Ala-Ala-Phe-Gln-PyrS2-3Thi-BztA-His-NH2]	185

Same assay, conditions: beta-Catenin FP IC50, fluorescence polarization

SMILES	IC50 [nM]
CC(=O)N1CCC[C@]12CC=CCCCC1(CCCC=CCCCOC(=O)N3CC[C@@](C(=O)N[C@@H](Cc4ccccc4Cl)C(=O)N[C@@H](Cc4csc5ccccc45)C(=O)N[C@@H](CC(C)C)C(N)=O)(C3)NC(=O)[C@H](CC(C)C)NC(=O)[C@H](Cc3ccccc3)NC(=O)[C@H](C)NC(=O)[C@H](C)NC(=O)[C@H](CC(=O)O)NC(=O)[C@H](CC(=O)O)NC1=O)NC(=O)[C@H](CC(N)=O)NC(=O)[C@H](CC(=O)O)NC2=O (stereo partly drawn) [I-1422, Ac-PL3-Asp-Asn-B5-Asp-Asp-Ala-Ala-Phe-Leu-PyrS2-2C1F-BztA-Leu-NH2]	388

Same assay, conditions: fluorescence polarization; read-out: beta-Catenin FP IC50

IC50 [nM]	SMILES
38	CC(=O)N1CCC[C@]12CC=CCCCC1(CCCC=CCCCOC(=O)N3CC[C@@](C(=O)N[C@@H](Cc4ccsc4)C(=O)N[C@@H](Cc4csc5ccccc45)C(=O)N[C@@H](CCC(N)=O)C(N)=O)(C3)NC(=O)[C@H](CC(C)C)NC(=O)[C@H](Cc3ccccc3)NC(=O)[C@H](CCCN3CCN(C)CC3)NC(=O)[C@H](C)NC(=O)[C@H](CC(=O)O)NC(=O)[C@H](CC(=O)O)NC1=O)NC(=O)[C@H](CC(C)(C)C)NC(=O)[C@H](CC(=O)O)NC2=O (stereo partly drawn) [I-1503, Ac-PL3-Asp-Npg-B5-Asp-Asp-Ala-MePpzNva-Phe-Leu-PyrS2-3Thi-BztA-Gln-NH2]
474	CC(=O)N1CCC[C@]12CC=CCCCC1(CCCC=CCOC(=O)N3CC(C(=O)N[C@@H](Cc4ccsc4)C(=O)N[C@@H](Cc4csc5ccccc45)C(=O)N[C@@H](CCC(N)=O)C(N)=O)(C3)NC(=O)[C@H](CC(N)=O)NC(=O)[C@H](Cc3ccccc3)NC(=O)[C@H](C)NC(=O)[C@H](C)NC(=O)[C@H](CC(=O)O)NC(=O)[C@H](CC(=O)O)NC1=O)NC(=O)[C@H](CC(C)(C)C)NC(=O)[C@H](CC(=O)O)NC2=O (stereo partly drawn) [I-1826, Ac-PL3-Asp-Npg-B5-Asp-Asp-Ala-Ala-Phe-Asn-Az-3Thi-BztA-Gln-NH2]
6990	CC(=O)N1CCC[C@]12CC=CCCCC1(CCCC=CCCCOC(=O)N3CC[C@@](C(=O)N[C@@H](Cc4ccccc4)C(=O)N[C@@H](Cc4csc5ccccc45)C(=O)N[C@@H](CCC(N)=O)C(N)=O)(C3)NC(=O)[C@H](CC(C)C)NC(=O)[C@H](CO)NC(=O)[C@H](C)NC(=O)[C@H](CCCCNC(C)C)NC(=O)[C@H]([C@@H](C)O)NC(=O)[C@H](CC(=O)O)NC1=O)NC(=O)[C@H](CC(C)(C)C)NC(=O)[C@H](CC(N)=O)NC2=O (stereo partly drawn) [I-1597, Ac-PL3-Asn-Npg-B5-Asp-Thr-iPrLys-Ala-Ser-Leu-PyrS2-Phe-BztA-Gln-NH2]
17.5	CC(=O)N1CCC[C@]12CC=CCCCC1(CCCC=CCCCOC(=O)N3CC[C@@](C(=O)N[C@@H](Cc4ccsc4)C(=O)N[C@@H](Cc4csc5ccccc45)C(=O)N[C@@H](CCC(N)=O)C(=O)N[C@@H](C)CO)(C3)NC(=O)[C@H](CC(C)C)NC(=O)[C@H](Cc3ccccc3)NC(=O)[C@H](C)NC(=O)[C@H](C)NC(=O)[C@H](CN(CC(=O)O)CC(F)(F)F)NC(=O)[C@H](CC(=O)O)NC1=O)NC(=O)[C@H](CC(C)(C)C)NC(=O)[C@H](CC(=O)O)NC2=O (stereo partly drawn) [I-1679, Ac-PL3-Asp-Npg-B5-Asp-TfeGA-Ala-Ala-Phe-Leu-PyrS2-3Thi-BztA-Gln-Alao1]
6560	CC(=O)N1CCC[C@]12CC=CCCCC1(CCCC=CCCCOC(=O)N3CC[C@@](C(=O)N[C@@H](Cc4ccsc4)C(=O)N[C@@H](Cc4csc5ccccc45)C(=O)N[C@@H](CCC(N)=O)C(N)=O)(C3)NC(=O)[C@H](CC(C)C)NC(=O)[C@H](Cc3ccccc3)NC(=O)[C@H](C)NC(=O)[C@H](C)NC(=O)[C@H](CC(C)C)NC(=O)[C@H](CC(=O)O)NC1=O)NC(=O)[C@H](CC(C)(C)C)NC(=O)[C@H](CC(=O)O)NC2=O (stereo partly drawn) [I-1444, Ac-PL3-Asp-Npg-B5-Asp-Leu-Ala-Ala-Phe-Leu-PyrS2-3Thi-BztA-Gln-NH2]
248	CC(=O)N1CCC[C@]12CC=CCCCC1(CCCC=CCCCOC(=O)N3CC[C@@](C(=O)N[C@@H](Cc4ccsc4)C(=O)N[C@@H](Cc4csc5ccccc45)C(=O)N[C@@H](CCC(N)=O)C(N)=O)(C3)NC(=O)[C@H](Cc3c[nH]cn3)NC(=O)[C@H](Cc3ccccc3)NC(=O)[C@H](C)NC(=O)[C@H](C)NC(=O)[C@H]([C@@H](C)O)NC(=O)[C@H](CC(N)=O)NC1=O)NC(=O)[C@H](CC(C)(C)C)NC(=O)[C@H](CC(=O)O)NC2=O (stereo partly drawn) [I-2146, Ac-PL3-Asp-Npg-B5-Asn-Thr-Ala-Ala-Phe-His-PyrS2-3Thi-BztA-Gln-NH2]

Further lines, the compound ahead of its results:

SMILES	IC50 [nM]
CC(=O)N[C@]1(C)CCCCCCC2(CCCCCCCCOC(=O)N3CC[C@@](C(=O)N[C@@H](Cc4ccccc4C(F)(F)F)C(=O)N[C@@H](Cc4csc5ccccc45)C(=O)N[C@@H](CCC(N)=O)C(N)=O)(C3)NC(=O)[C@H](CC(C)C)NC(=O)[C@H](Cc3ccccc3)NC(=O)[C@H](C)NC(=O)[C@H](C)NC(=O)[C@H](Cc3cccc(C(=O)O)c3)NC(=O)[C@H](CC(=O)O)NC2=O)NC(=O)[C@H](CC(C)(C)C)NC(=O)[C@H](CC(=O)O)NC1=O (stereo partly drawn) [I-2570, Ac-R3-Asp-Npg-B5-Asp-3COOHF-Ala-Ala-Phe-Leu-PyrS2-2F3MeF-BztA-Gln-NH2]	1280
CC(=O)N1CCC[C@]12CC=CCCCC1(CCCC=CCCCOC(=O)N3CC[C@@](C(=O)N[C@@H](Cc4ccccc4)C(=O)N[C@@H](Cc4csc5ccccc45)C(=O)N[C@@H](CCC(N)=O)C(N)=O)(C3)NC(=O)[C@H](CC3CCCCC3)NC(=O)[C@H](Cc3ccccc3)NC(=O)[C@H](C)NC(=O)[C@H](CCCCNC(C)C)NC(=O)[C@H](CCC(N)=O)NC(=O)[C@H](CC(=O)O)NC1=O)NC(=O)[C@H](CC(C)(C)C)NC(=O)[C@H](CC(N)=O)NC2=O (stereo partly drawn) [I-1650, Ac-PL3-Asn-Npg-B5-Asp-Gln-iPrLys-Ala-Phe-Cha-PyrS2-Phe-BztA-Gln-NH2]	1680
CC(C)C[C@@H]1NC(=O)[C@H](Cc2ccccc2)NC(=O)[C@H](C)NC(=O)[C@H](C)NC(=O)[C@H](CN(CC(=O)O)CC(F)(F)F)NC(=O)[C@H](CC(=O)O)NC(=O)C2(CCCCCCCCOC(=O)N3CC[C@@](C(=O)N[C@@H](Cc4ccsc4)C(=O)N[C@@H](Cc4csc5ccccc45)C(=O)N[C@@H](CCC(N)=O)C(N)=O)(C3)NC1=O)CCCCCCOc1cccc(c1)C(=O)N1CCC[C@H]1C(=O)N[C@@H](CC(=O)O)C(=O)N[C@@H](CC(C)(C)C)C(=O)N2 (stereo partly drawn) [I-2377, ProBzAm3OAllyl-Asp-Npg-B5-Asp-TfeGA-Ala-Ala-Phe-Leu-PyrS2-3Thi-BztA-Gln-NH2]	978
CC(C)C[C@@H]1NC(=O)[C@H](Cc2ccccc2)NC(=O)[C@H](C)NC(=O)[C@H](C)NC(=O)[C@H](Cc2cccc(C(=O)O)c2)NC(=O)[C@H](CC(=O)O)NC(=O)C2(CCCC=CCCCOC(=O)N3CC[C@@](C(=O)N[C@@H](Cc4ccccc4Cl)C(=O)N[C@@H](Cc4csc5ccccc45)C(=O)N[C@@H](C)C(N)=O)(C3)NC1=O)CCCC=CC[C@]1(CCCN1C(=O)OC1CCCCC1)C(=O)N[C@@H](CC(=O)O)C(=O)N[C@@H](CC(C)(C)C)C(=O)N2 (stereo partly drawn) [I-2325, CO2Hex-PL3-Asp-Npg-B5-Asp-3COOHF-Ala-Ala-Phe-Leu-PyrS2-2C1F-BztA-Ala-NH2]	1350
CC(=O)N1CCC[C@]12CC=CCCCC1(CCCC=CCCCOC(=O)N3CC[C@@](C(=O)N[C@@H](Cc4ccccc4Cl)C(=O)N[C@@H](Cc4csc5ccccc45)C(=O)N[C@@H](CCC(N)=O)C(N)=O)(C3)NC(=O)[C@H](CC(N)=O)NC(=O)[C@H](Cc3ccccc3N)NC(=O)[C@H](C)NC(=O)[C@H](C)NC(=O)[C@H](CC(=O)O)NC(=O)[C@H](CC(=O)O)NC1=O)NC(=O)[C@H](CC(C)(C)C)NC(=O)[C@H](CC(=O)O)NC2=O (stereo partly drawn) [I-1727, Ac-PL3-Asp-Npg-B5-Asp-Asp-Ala-Ala-2NH2F-Asn-PyrS2-2C1F-BztA-Gln-NH2]	28
CC(=O)N1CCC[C@]12CC=CCCCC1(CCCC=CCCCOC(=O)N3CC[C@@](C(=O)N[C@@H](Cc4ccsc4)C(=O)N[C@@H](Cc4csc5ccccc45)C(=O)N[C@@H](CCC(N)=O)C(N)=O)(C3)NC(=O)[C@H](CC(C)C)NC(=O)[C@H](Cn3cc(CN4CCS(=O)(=O)CC4)nn3)NC(=O)[C@H](C)NC(=O)[C@H](C)NC(=O)[C@H](CN(CC(=O)O)CC(F)(F)F)NC(=O)[C@H](CC(=O)O)NC1=O)NC(=O)[C@H](CC(C)(C)C)NC(=O)[C@H](CC(=O)O)NC2=O (stereo partly drawn) [I-1860, Ac-PL3-Asp-Npg-B5-Asp-TfeGA-Ala-Ala-[SO2MorphCH2]TriAzDap-Leu-PyrS2-3Thi-BztA-Gln-NH2]	512
